Test results reported in patent US9771343B2, “2-alkyl-or-aryl-substituted tanshinone derivatives, and preparation method and application thereof” (Hangzhou Bensheng Pharmaceutical Co., Ltd., priority 2011, dated 2017).
Converted amounts (≈) assume the structure as drawn.

Legend:
[1] = test system: K562/adr (drug-resistant, chronic myeloid leukemia, CML); assay: MTT cell growth inhibition, K562/adr leukemia cells, 72 h; assay type: cell-based; details: Homo sapiens, K562/Adr
Protocol: (§1) The standard sample of tanshinone I (TA) and the 2-alkyl- or 2-aromatic-substituted tanshinone I derivatives of the present invention are sufficiently dissolved in dimethylsulfoxide to produce a stock solution of 10 mg/mL, which is refrigerated at 4° C. and stored in dark, and is diluted with cell culture medium to a desired concentration prior to experimentation.
(§2) Obtaining 6000 well-growing leukemia cells and inoculating them into wells of a 96-well cell culture plate. The culture medium is the RPMI-1640 cell culture medium containing 10% fetal bovine serum. After adding on the second day the 2-alkyl- or 2-aromatic-substituted tanshinone I derivatives of different concentrations and mixing uniformly, placing the plate in a carbon dioxide cell incubator (5% CO2) at 37° C. and incubated for 72 hours. Then the viable cell concentration is determined by MTT method. In this experiment, the cell viability in control group (not treated with any compound) is set as 100%, and the cell viability (%) after treatment by the compounds and the half maximum inhibitory concentration for the leukemia cell at 72 hours (IC50 value of 72 hours, μg/mL) are calculated.

[2] = test system: Kasumi-1 (acute myeloid leukemia M2 type, AML-M2); assay: MTT cell growth inhibition, Kasumi-1 leukemia cells, 72 h; assay type: cell-based; details: Homo sapiens, Kasumi-1, 72 h
Protocol: as §1, §2

[3] = test system: NB4 (acute promyelocytic leukemia, AML); assay: MTT cell growth inhibition, NB4 leukemia cells, 72 h; assay type: cell-based; details: NB4, 72 h
Protocol: as §1, §2

[4] = test system: Jurkat (acute lymphoblastic leukemia, ALL); assay: MTT cell growth inhibition, Jurkat leukemia cells, 72 h; assay type: cell-based; details: Homo sapiens, 72 h
Protocol: as §1, §2

[5] = test system: H9 (acute lymphoblastic leukemia, ALL); assay: MTT cell growth inhibition, H9 leukemia cells, 72 h; assay type: cell-based; details: H9, 72 h
Protocol: as §1, §2

[6] = test system: RPMI8226 (multiple myeloma); assay: MTT cell growth inhibition, RPMI8226 multiple myeloma cells, 72 h; assay type: cell-based, human; details: Homo sapiens, RPMI 8226, 72 h
Protocol: as §1, §2

[7] = test system: A549 (human lung cancer); assay: MTT cell growth inhibition, A549 cells, 72 h; assay type: cell-based; details: Homo sapiens, A549, 72 h
Protocol: as §1, with “with a” for “with”, “to the” for “to a”
(§3) Obtaining 6000 well-growing human solid tumor cells and inoculating them into wells of a 96-well cell culture plate. The culture medium is DMEM High Glucose cell culture medium containing 10% fetal bovine serum. The plate is placed in a carbon dioxide cell incubator (5% CO2) at 37° C. and incubated for 24 hours. After adding the 2-alkyl- or 2-aromatic-substituted tanshinone I derivatives of different concentrations and mixing uniformly, the plate is placed in a carbon dioxide cell incubator (5% CO2) at 37° C. and incubated for 72 hours. Then the viable cell concentration is determined by MTT method. In this experiment, the cell viability in control group (not treated with any compound) is set as 100%, and the cell viability (%) after treatment by the compounds and the half maximum inhibitory concentration for the leukemia cell at 72 hours (IC50 value of 72 hours, μg/mL) are calculated.

[8] = test system: PANC-1 (pancreatic cancer); assay: MTT cell growth inhibition, PANC-1 cells, 72 h; assay type: cell-based, human; details: Homo sapiens, PANC-1, 72 h
Protocol: as §1, with “with a” for “with”, “to the” for “to a”
as §3

[9] = test system: Becap37 (human breast cancer cell); assay: MTT cell growth inhibition, Becap37 cells, 72 h; assay type: cell-based; details: Homo sapiens, Becap-37, 72 h
Protocol: as §1, with “with a” for “with”, “to the” for “to a”
as §3

[10] = test system: MG63 (osteosarcoma); assay: MTT cell growth inhibition, MG63 cells, 72 h; assay type: cell-based, human; details: Homo sapiens, MG-63, 72 h
Protocol: as §1, with “with a” for “with”, “to the” for “to a”
as §3

[11] = test system: Hep G2 (human liver cancer cell); assay: MTT cell growth inhibition, Hep G2 cells, 72 h; assay type: cell-based; details: Homo sapiens, HepG2, Hep G2, 72 h
Protocol: as §1, with “with a” for “with”, “to the” for “to a”
as §3

[12] = test system: RKO (human colon adenocarcinoma cell); assay: MTT cell growth inhibition, RKO cells, 72 h; assay type: cell-based; details: Homo sapiens, RKO, 72 h
Protocol: as §1, with “with a” for “with”, “to the” for “to a”
as §3

[13] = test system: U87 MG (malignant glioma cell); assay: MTT cell growth inhibition, U87 MG cells, 72 h; assay type: cell-based, human
Protocol: as §1, with “with a” for “with”, “to the” for “to a”
as §3

[14] = test system: Hela (human cervical cancer cell); assay: MTT cell growth inhibition, Hela cells, 72 h; assay type: cell-based; details: Homo sapiens, HeLa, 72 h
Protocol: as §1, with “with a” for “with”, “to the” for “to a”
as §3

[15] = test system: CaES-17 (esophageal cancer cell); assay: MTT cell growth inhibition, CaES-17 cells, 72 h; assay type: cell-based, human; details: Homo sapiens, CaEs17, CaEs-17, 72 h
Protocol: as §1, with “with a” for “with”, “to the” for “to a”
as §3

[16] = test system: CNE (nasopharyngeal carcinoma cell); assay: MTT cell growth inhibition, CNE cells, 72 h; assay type: cell-based, human; details: Homo sapiens, CNE, 72 h
Protocol: as §1, with “with a” for “with”, “to the” for “to a”
as §3

[17] = test system: Hep-2 (laryngeal carcinoma); assay: MTT cell growth inhibition, Hep-2 cells, 72 h; assay type: cell-based, human; details: Homo sapiens, HEp-2, 72 h
Protocol: as §1, with “with a” for “with”, “to the” for “to a”
as §3

[18] = test system: MGC 803 (human gastric cancer cell); assay: MTT cell growth inhibition, MGC 803 cells, 72 h; assay type: cell-based; details: Homo sapiens, MGC-803, 72 h
Protocol: as §1, with “with a” for “with”, “to the” for “to a”
as §3

[19] = test system: PC-3 (prostate cancer); assay: MTT cell growth inhibition, PC-3 cells, 72 h; assay type: cell-based, human; details: Homo sapiens, PC-3, 72 h
Protocol: as §1, with “with a” for “with”, “to the” for “to a”
as §3

[20] = test system: SK-OV-3 (ovarian cancer cell); assay: MTT cell growth inhibition, SK-OV-3 cells, 72 h; assay type: cell-based, human; details: Homo sapiens, SK-OV-3, 72 h
Protocol: as §1, with “with a” for “with”, “to the” for “to a”
as §3

IC50 ([1]; read-out: IC50): 15.5 µg/mL (≈ 40.1 µM)
IC90 ([1]; read-out: IC90): > 16 µg/mL
IC50 ([2]; read-out: IC50): > 16 µg/mL
IC90 ([2]; read-out: IC90): > 16 µg/mL
IC50 ([3]; read-out: IC50): 4.09 µg/mL (≈ 10.6 µM)
IC90 ([3]; read-out: IC90): 11.2 µg/mL (≈ 29 µM)
IC50 ([4]; read-out: IC50): 4.83 µg/mL (≈ 12.5 µM)
IC90 ([4]; read-out: IC90): 9.72 µg/mL (≈ 25.1 µM)
IC50 ([5]; read-out: IC50): 6.7 µg/mL (≈ 17.3 µM)
IC90 ([5]; read-out: IC90): > 16 µg/mL
IC50 ([6]; read-out: IC50): 4 µg/mL (≈ 10.3 µM)
IC90 ([6]; read-out: IC90): 16.1 µg/mL (≈ 41.5 µM)
IC50 ([7]; read-out: IC50): 6.92 µg/mL (≈ 17.9 µM)
IC90 ([7]; read-out: IC90): > 16 µg/mL
IC50 ([8]; read-out: IC50): 9.8 µg/mL (≈ 25.3 µM)
IC90 ([8]; read-out: IC90): > 16 µg/mL
IC50 ([9]; read-out: IC50): 9.34 µg/mL (≈ 24.1 µM)
IC90 ([9]; read-out: IC90): > 16 µg/mL
IC50 ([10]; read-out: IC50): 10.3 µg/mL (≈ 26.7 µM)
IC90 ([10]; read-out: IC90): > 16 µg/mL
IC50 ([11]; read-out: IC50): 14.5 µg/mL (≈ 37.4 µM)
IC90 ([11]; read-out: IC90): > 16 µg/mL
IC50 ([12]; read-out: IC50): 5.01 µg/mL (≈ 13 µM)
IC90 ([12]; read-out: IC90): > 16 µg/mL
IC50 ([13]; Homo sapiens, U-87 MG, U87-MG, 72 h, read-out: IC50): 5.73 µg/mL (≈ 14.8 µM)
IC90 ([13]; Homo sapiens, U-87 MG, U87-MG, 72 h, read-out: IC90): 19.2 µg/mL (≈ 49.6 µM)
IC50 ([14]; read-out: IC50): 5.5 µg/mL (≈ 14.2 µM)
IC90 ([14]; read-out: IC90): 22.2 µg/mL (≈ 57.4 µM)
IC50 ([15]; read-out: IC50): 11 µg/mL (≈ 28.5 µM)
IC90 ([15]; read-out: IC90): 28.8 µg/mL (≈ 74.5 µM)
IC50 ([16]; read-out: IC50): 10.5 µg/mL (≈ 27.1 µM)
IC90 ([16]; read-out: IC90): > 16 µg/mL
IC50 ([17]; read-out: IC50): 11.6 µg/mL (≈ 30.1 µM)
IC90 ([17]; read-out: IC90): > 16 µg/mL
IC50 ([18]; read-out: IC50): 8.88 µg/mL (≈ 23 µM)
IC90 ([18]; read-out: IC90): 23.9 µg/mL (≈ 61.9 µM)
IC50 ([19]; read-out: IC50): > 16 µg/mL
IC90 ([19]; read-out: IC90): > 16 µg/mL
IC50 ([20]; read-out: IC50): > 16 µg/mL
IC90 ([20]; read-out: IC90): > 16 µg/mL
Structure (SMILES): Cc1c(-c2ccccc2Cl)oc2c1C(=O)C(=O)c1c-2ccc2c(C)cccc12 [BS-TA-04]
anti-U87 MG activity (in words) ([13]; Table 2): superior to that of tanshinone I per se
